Laboratory results taken from patent US20230099344A1, “COMPOUNDS AND METHODS FOR THE TARGETED DEGRADATION OF IRAK-4” (Arvinas Operations, Inc., priority 2021, published 2023).

target: T1, IRAK-4 (Homo sapiens, UniProt Q9NWZ3); test: IRAK-4 ELISA, PBMC degradation; type: cell-based; parameters: endogenous in cells; host or cells: PBMC; conditions: treated overnight
T1 sequence (Q9NWZ3 1-460): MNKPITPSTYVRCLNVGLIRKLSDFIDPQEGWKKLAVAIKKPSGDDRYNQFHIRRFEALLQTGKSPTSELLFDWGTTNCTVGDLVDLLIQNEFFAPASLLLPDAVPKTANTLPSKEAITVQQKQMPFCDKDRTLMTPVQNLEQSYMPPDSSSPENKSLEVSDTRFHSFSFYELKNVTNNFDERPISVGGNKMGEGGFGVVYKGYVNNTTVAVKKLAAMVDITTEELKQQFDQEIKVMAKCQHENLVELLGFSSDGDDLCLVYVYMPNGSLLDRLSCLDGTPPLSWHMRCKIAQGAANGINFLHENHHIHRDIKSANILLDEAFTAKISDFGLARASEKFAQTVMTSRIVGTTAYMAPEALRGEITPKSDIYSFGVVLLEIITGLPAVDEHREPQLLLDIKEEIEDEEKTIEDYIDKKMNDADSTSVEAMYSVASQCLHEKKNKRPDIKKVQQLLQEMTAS
Experimental: Reagents: Human IRAK-4 Matched Antibody Pair Kit (Abcam ab218182) and ELISA Accessory Pack (Abcam ab210905).
Cell Treatment and Lysis:
1. OCI-Ly10: 200,000 cells are seeded at 1×10^6/ml in 96-well U-bottom plates 200 ul per well, treated with compound the same day. Incubate overnight. 2. PBMC: 800,000 cells are seeded at 2×10^6/ml in 96-well U-bottom deep-well plates, 400 ul per well, treated with compound the same day. Incubate overnight.
Cell lysate is collected and analyzed by ELISA for IRAK-4 levels.

DC50	Dmax	PBMC DC90	PBMC Dmax	SMILES
≥ 10 nM	≥ 90%	D (D represents a DC90 value ≥50 nM)	–	CC(C)Oc1cc2c(cc1NC(=O)c1cnn3cccnc13)CN(C1CCC(N(CC(F)(F)F)C3CN(c4ccc5c(c4)C(=O)N(C4CCC(=O)NC4=O)C5=O)C3)CC1)C2=O (stereo not drawn) [Example 332]
< 1 nM	≥ 90%	A (A represents a DC90 value <10.0 nM)	–	Cn1c(=O)n(C2CCC(=O)NC2=O)c2cccc(N3CCC(CN4CCC(n5cc6cc(NC(=O)c7cnn8cccnc78)c(OCC7CC7)cc6n5)CC4)CC3)c21 (stereo not drawn) [Example 390, N-(6-(cyclopropylmethoxy)-2-(1-((1-(1-(2,6-dioxopiperidin-3-yl)-3-methyl-2-oxo-2,3-dihydro-1H-benzo[d]imidazol-4-yl)piperidin-4-yl)methyl)piperidin-4-yl)-2H-indazol-5-yl)pyrazolo[1,5-a]pyrimidine-3-carboxamide]
< 1 nM	≥ 90%	A (A represents a DC90 value <10.0 nM)	–	CC(C)Oc1cc2c(cc1NC(=O)c1cnn3cccnc13)CN(C1CCN(C3(C)CN(c4ccc5c(c4)CN(C4CCC(=O)NC4=O)C5=O)C3)CC1)C2=O (stereo not drawn) [Example 275]
< 1 nM	80 to 90%	A (A represents a DC90 value <10.0 nM)	–	CC(C)Oc1cc2c(cc1NC(=O)c1cnn3cccnc13)CN([C@H]1CC[C@@H](N3CCN(c4ccc5c(c4)CN(C4CCC(=O)NC4=O)C5=O)CC3)CC1)C2=O (stereo partly drawn) [Example 276]
1 to 5 nM	80 to 90%	A (A represents a DC90 value <10.0 nM)	–	O=C1CCC(N2C(=O)c3ccc(N4CC(CN5CCC([C@H](F)CN6Cc7cc(NC(=O)c8cnn9cccnc89)c(N8CCOCC8)cc7C6=O)CC5)C4)cc3C2=O)C(=O)N1 (stereo partly drawn) [Example 412, N-(2-((2S)-2-(1-((1-(2-(2,6-dioxopiperidin-3-yl)-1,3-dioxoisoindolin-5-yl)azetidin-3-yl)methyl)piperidin-4-yl)-2-fluoroethyl)-6-morpholino-1-oxoisoindolin-5-yl)pyrazolo[1,5-a]pyrimidine-3-carboxamide]
< 1 nM	≥ 90%	A (A represents a DC90 value <10.0 nM)	–	CC(C)Oc1cc2c(cc1NC(=O)c1cnn3cccnc13)CN(C1CCC(N(C)C3CCN(c4ccc5c(c4)C(=O)N(C4CCC(=O)NC4=O)C5=O)CC3)CC1)C2=O (stereo not drawn) [Example 316]
< 1 nM	≥ 90%	A (A represents a DC90 value <10.0 nM)	–	O=C1CCC(N2C(=O)c3ccc(N4CC(CN5CCC(n6cc7cc(NC(=O)c8cnn9cccnc89)c(OCC(F)F)cc7n6)CC5)C4)cc3C2=O)C(=O)N1 (stereo not drawn) [Example 235]
1 to 5 nM	80 to 90%	A (A represents a DC90 value <10.0 nM)	–	O=C1CCC(N2C(=O)c3ccc(N4CC5(CCC(N6CCC(n7cc8cc(NC(=O)c9cnn%10cccnc9%10)c(OCC9CC9)cc8n7)CC6)CC5)C4)cc3C2=O)C(=O)N1 (stereo not drawn) [Example 227]
< 1 nM	≥ 90%	A (A represents a DC90 value <10.0 nM)	–	CC(C)Oc1cc2nn([C@H]3CC[C@H](N(C)C4CN(c5ccc6c(c5)C(=O)N(C5CCC(=O)NC5=O)C6=O)C4)CC3)cc2cc1NC(=O)c1cnn2cccnc12 (stereo partly drawn) [Example 318]
5 to 10 nM	80 to 90%	D (D represents a DC90 value ≥50 nM)	–	O=C1CCC(N2C(=O)c3ccc(N4CC(F)(CN5CCC(n6cc7cc(NC(=O)c8cnn9ccc(N%10C[C@H]%11C[C@@H]%10CO%11)nc89)c(C(F)F)cc7n6)CC5)C4)cc3C2=O)C(=O)N1 (stereo partly drawn) [Example 410]
< 1 nM	≥ 90%	A (A represents a DC90 value <10.0 nM)	–	CC(C)Oc1cc2c(cc1NC(=O)c1cnn3cccnc13)CN([C@H]1CC[C@@H](N3CC4(CN(c5ccc6c(c5)CN(C5CCC(=O)NC5=O)C6=O)C4)C3)CC1)C2=O (stereo partly drawn) [Example 277]

More lines, now with the values behind:

SMILES	DC50	Dmax	PBMC DC90	PBMC Dmax
CC(C)Oc1cc2nn(C3CCN(CC4(F)CCN(c5ccc6c(c5)C(=O)N(C5CCC(=O)NC5=O)C6=O)CC4)CC3)cc2cc1NC(=O)c1cnn2cccnc12 (stereo not drawn) [Example 188]	5 to 10 nM	≥ 90%	D (D represents a DC90 value ≥50 nM)	–
O=C1CCC(N2C(=O)c3ccc(N4CC(F)(CN5CCC(N6Cc7cc(NC(=O)c8cnn9cccnc89)c(C8CC8)cc7C6=O)CC5)C4)cc3C2=O)C(=O)N1 (stereo not drawn) [Example 100]	1 to 5 nM	≥ 90%	B (B represents a DC90 value ≥10.0 nM and <25.0 nM)	–
CC(C)Oc1nc2c(cc1NC(=O)c1cnn3cccnc13)CN(C1CCN(CC3CN(c4ccc5c(c4)CN(C4CCC(=O)NC4=O)C5=O)C3)CC1)C2=O (stereo not drawn) [Example 401]	1 to 5 nM	≥ 90%	B (B represents a DC90 value ≥10.0 nM and <25.0 nM)	–
CC(C)Oc1cc2c(cc1NC(=O)c1cnn3cccnc13)CN(C1CCN(C(=O)C3CN(c4ccc5c(c4)C(=O)N(C4CCC(=O)NC4=O)C5=O)C3)CC1)C2=O (stereo not drawn) [Example 71]	1 to 5 nM	≥ 90%	B (B represents a DC90 value ≥10.0 nM and <25.0 nM)	–
O=C1CCC(N2C(=O)c3ccc(N4CCC[C@@H](CN5CCC(n6cc7cc(NC(=O)c8cnn9cccnc89)c(OCC8CC8)cc7n6)CC5)C4)cc3C2=O)C(=O)N1 (stereo partly drawn) [Example 175]	1 to 5 nM	≥ 90%	B (B represents a DC90 value ≥10.0 nM and <25.0 nM)	–
O=C1CCC(N2C(=O)c3ccc(N4CC(CN5CCC(N6Cc7cc(NC(=O)c8cnn9cccnc89)c(OCC(F)F)cc7C6=O)CC5)C4)cc3C2=O)C(=O)N1 (stereo not drawn) [Example 103]	< 1 nM	80 to 90%	A (A represents a DC90 value <10.0 nM)	–
O=C1CCC(N2C(=O)c3ccc(N4CCC5(CCC(CN6CCC(n7cc8cc(NC(=O)c9cnn%10cccnc9%10)c(OCC9CC9)cc8n7)CC6)CC5)CC4)cc3C2=O)C(=O)N1 (stereo not drawn) [Example 247]	1 to 5 nM	≥ 90%	B (B represents a DC90 value ≥10.0 nM and <25.0 nM)	–
CC(C)Oc1nc2c(cc1NC(=O)c1cnn3cccnc13)CN(C1CCN(CCc3ccc4c(c3)CN(C3CCC(=O)NC3=O)C4=O)CC1)C2=O (stereo not drawn) [Example 399]	1 to 5 nM	≥ 90%	B (B represents a DC90 value ≥10.0 nM and <25.0 nM)	–
CC(C)Oc1cc2nn(C3CCN(CC4CCN(c5ccc6c(c5)C(=O)N(C5CCC(=O)NC5=O)C6=O)CC4)CC3)cc2cc1NC(=O)c1cnn2cccnc12 (stereo not drawn) [Example 138]	< 1 nM	≥ 90%	A (A represents a DC90 value <10.0 nM)	–
CC(C)Oc1cc2c(cc1NC(=O)c1cnn3cccnc13)CN(C1CCN(CCC3(F)CN(c4ccc5c(c4)C(=O)N(C4CCC(=O)NC4=O)C5=O)C3)CC1)C2=O (stereo not drawn) [Example 15]	< 1 nM	80 to 90%	A (A represents a DC90 value <10.0 nM)	–
CC(C)Oc1cc2c(cc1NC(=O)c1cnn3cccnc13)CN(C1CCN(C[C@H]3CCCN(c4ccc5c(c4)C(=O)N(C4CCC(=O)NC4=O)C5=O)C3)CC1)C2=O (stereo partly drawn) [Example 76]	1 to 5 nM	≥ 90%	B (B represents a DC90 value ≥10.0 nM and <25.0 nM)	–
CCN(C1CCN(c2ccc3c(c2)C(=O)N([C@@H]2CCC(=O)NC2=O)C3=O)CC1)[C@H]1C[C@H](n2cc3cc(NC(=O)c4cnn5cccnc45)c(OC(C)C)cc3n2)C1 [Example 377, N-(2-((1r,3r)-3-((1-(2-(2,6-dioxopiperidin-3-yl)-1,3-dioxoisoindolin-5-yl)piperidin-4-yl)(ethyl)amino)cyclobutyl)-6-isopropoxy-2H-indazol-5-yl)pyrazolo[1,5-a]pyrimidine-3-carboxamide]	1 to 5 nM	–	B (B represents a DC90 value ≥10.0 nM and <25.0 nM)	A (A represents a Dmax value ≥90)
CN1CC(Oc2cc3nn(C4CCN(CC5CCN(c6ccc7c(c6)C(=O)N(C6CCC(=O)NC6=O)C7=O)CC5)CC4)cc3cc2NC(=O)c2cnn3cccnc23)C1 (stereo not drawn) [Example 152]	≥ 10 nM	< 70%	D (D represents a DC90 value ≥50 nM)	–
CC(C)Oc1cc2c(cc1NC(=O)c1cnn3cccnc13)CN(C1CCN(C[C@@H]3CCN(c4ccc5c(c4)C(=O)N(C4CCC(=O)NC4=O)C5=O)C3)CC1)C2=O (stereo partly drawn) [Example 80]	1 to 5 nM	≥ 90%	A (A represents a DC90 value <10.0 nM)	–
O=C1CCC(N2C(=O)c3ccc(N4CC(F)(CN5CCC(n6cc7cc(NC(=O)c8cnn9cccnc89)c(C8CC8)cc7n6)CC5)C4)cc3C2=O)C(=O)N1 (stereo not drawn) [Example 199]	1 to 5 nM	≥ 90%	B (B represents a DC90 value ≥10.0 nM and <25.0 nM)	–
O=C1CCC(N2Cc3cc(N4CC(F)(CN5CCC(N6Cc7cc(NC(=O)c8cnn9cccnc89)c(OCC8CC8)cc7C6=O)CC5)C4)ccc3C2=O)C(=O)N1 (stereo not drawn) [Example 104]	< 1 nM	70 to 80%	A (A represents a DC90 value <10.0 nM)	–
COc1cc(N2CC(CN3CCC(n4cc5cc(NC(=O)c6cnn7cccnc67)c(OCC6CC6)cc5n4)CC3)C2)cc2c1C(=O)N(C1CCC(=O)NC1=O)C2=O (stereo not drawn) [Example 131]	< 1 nM	≥ 90%	A (A represents a DC90 value <10.0 nM)	–
